US9678060B2, “Lunasin-induced regulation of disease-related gene expression” (THE REGENTS OF THE UNIVERSITY OF CALIFORNIA, priority 2007, dated 2017)

Columns and labels:
[1] = tested on: tumorigenic prostate epithelial cell line (RWPE-2); experiment: Microarray gene expression profile after 24 hour exposure to lunasin; assay type: cell-based, human
Experimental: (§1) In the present disclosure the investigators analyzed changes in gene expression profiles of normal (RWPE-1) and malignant (RWPE-2) prostate epithelial cell lines after 24 hour exposure to synthetic lunasin. Results disclosed herein support the anti-neoplastic property of lunasin and help elucidate its molecular mechanism. […] It is therefore reasoned that lunasin suppresses neoplastic transformation by up-regulating various genes.
(§2) To determine the genetic changes associated with lunasin treatment, the gene expression profiles of non-tumorigenic (RWPE-1) (SEQ ID No.2) and tumorigenic (RWPE-2) (SEQ ID No.2) prostate cells treated with synthetic lunasin were assessed using microarray analysis.

[2] = tested on: non-tumorigenic prostate epithelial cell line (RWPE-1); experiment: as above; assay type: cell-based, human
Experimental: as §1, §2

[3] = tested on: female SENCAR mice; conditions: topical application; cited from earlier work
[4] = tested on: thrombospondin (THBS); experiment: Western blot of THBS protein in RWPE-1 and RWPE-2 cells; assay type: cell-based, human
Text: (§3) THBS contains a CpG island within its promoter which together with other chemopreventative genes and tumor suppressors are frequently found to be hypermethylated during cancer formation. Since DNA hypermethylation of CpG islands is associated with histone hypoacetylation, we wanted to determine if there is a loss of H4-Lys16 acetylation within this region of the gene by conducting PCR on chromatin immunoprecipitated (ChiP) DNA using acetylated H4-Lys16 antibody and primers derived from the promoter/CpG island and exon 11 of the thrombospondin gene. […] The loss of H4-Lys16 acetylation on CpG island of the THBS promoter in tumor prostate cells leads to the silencing of the THBS gene and the inability of lunasin to increase H4-Lys16 acetylation and upregulate expression in tumorigenic cell lines.
(§4) THBS protein levels were determined in RWPE-1 and -2 cell lines treated with or without lunasin. PCR was conducted on ChIP DNA isolated with acetylated H4-Lys16 antibody, using primers derived from the promoter and exon 11 of the THBS gene.

[5] = tested on: E1A-transfected C3H10T1/2 cells; conditions: cited from earlier work
[6] = molecular target: T1, histone H4 N-terminal tail lysines acetylated by p300 (Homo sapiens, UniProt P62805); experiment: In vitro histone acetylation (HAT) assay, p300; assay type: biochemical
T1 construct: Acid extracted histones from untreated Hela cells; endogenous in cells; host or cells: HeLa
Text: (§5) Inhibition of histone acetylation and hypoacetylated histones are by nature correlated with transcriptional silencing and downregulation of genes. How then can lunasin, which inhibits H3 and H4 N-terminal tail acetylation, act as a transcriptional activator? To answer this question, the inventors determined the effect of lunasin on the acetylation of specific lysine residues on the H4 N-terminal tail ([…]) using the PCAF, Hat1 and p300 histone acetylase enzymes and acid-extracted core histones as substrate.
(§6) Acid extracted histones from untreated Hela cells and purified recombinant histone H4 are used as templates in an in vitro histone acetylation (HAT) assay. Histone templates are pre-incubated in the presence or absence of 2 μM lunasin peptide for 30 min at RT before the addition of acetyl co-A, HAT reaction buffer and histone acetylase enzymes (p300, HAT1 and PCAF). HAT reaction mixture is incubated with shaking at 30° C. for 1 h before stopping the reaction by adding protein sample buffer and boiling for 5 min. Samples are run on 10-20% SDS-PAGE gels, blotted onto nitrocellulose membranes and immunostained with antibodies against histone H4 with specific N-terminal lysine acetylation sites at […], 8, 12 and 16. Densitometer readings are normalized using signals from untreated histone templates.

[7] = molecular target: T2, histone H4 N-terminal tail lysines acetylated by Hat1 (Homo sapiens, UniProt P62805); experiment: In vitro histone acetylation (HAT) assay, Hat1; assay type: biochemical
T2 construct: Acid extracted histones from untreated Hela cells; endogenous in cells; host or cells: HeLa
Text: as §5, §6

[8] = molecular target: T3, histone H4 N-terminal tail lysines acetylated by PCAF (Homo sapiens, UniProt P62805); experiment: In vitro histone acetylation (HAT) assay, PCAF; assay type: biochemical; conditions: 2 μM lunasin
T3 construct: Acid extracted histones from untreated Hela cells; endogenous in cells; host or cells: HeLa
Text: as §5, §6

[9] = tested on: UGT1A family of genes in HepG2 liver cells; experiment: UGT1A expression in HepG2 cells (Western blot, RT-PCR); assay type: cell-based; conditions: 24 h
Experimental: HepG2 liver cells are grown in cell culture in the presence or absence of 10 uM lunasin peptide. After 24 h exposure, cells are harvested and total protein and RNA are harvested. Western blots are immunostained with UGT1A1 antibody and densitometer signals normalized using actin controls. […] Real-time quantitative RT-PCR will be conducted to measure differences in transcription levels.

[10] = tested on: H4-Lys16 acetylation at THBS gene promoter/CpG island; experiment: PCR of ChIP DNA isolated with acetylated H4-Lys16 antibody; assay type: cell-based, human; conditions: lunasin-treated RWPE-1 (non-tumorigenic)
Text: as §3, §4

[11] = tested on: E1A-transfected mouse fibroblast NIH 3T3 cells; conditions: E1A-transfected NIH 3T3 cells; cited from earlier work
[12] = molecular target: deacetylated histone H4 (Homo sapiens, UniProt P62805); experiment: Binding to histone H4 (FIG. 8)
[13] = tested on: C3H 10T1/2 mouse embryo fibroblast cells; conditions: C3H/T101/2 cells pre-treated 24 hour with lunasin (as little as 125 nM), then DMBA and MCA; six weeks assay; cited from earlier work
[14] = tested on: p21/WAF1/Cip1 in NIH 3T3 cells; conditions: NIH 3T3 cells pre-treated 24 h, eight days after E1A transfection; cited from earlier work
[15] = RWPE-1, 24 hour exposure to 2 micromolar lunasin
[16] = acid-extracted core histones, 2 μM lunasin
[17] = basal acid-extracted core histones, 2 μM lunasin
[18] = lunasin-treated acid-extracted core histones, 2 μM lunasin
[19] = recombinant H4, same in lunasin-treated and non-treated

H4-Lys12 acetylation by p300 [6, 16]: did not reduce
inhibition of H4-Lys 8 acetylation by p300 [6, 17]: 23.5%
increase in H4-Lys16 acetylation by p300 [6, 18]: 22%
Lys16 acetylation by p300, recombinant H4 as substrate [6, 19]: loss of Lys16 acetylation
H4-Lys 5 acetylation by Hat1 [7, 16]: did not reduce
H4-Lys12 acetylation by Hat1 [7, 16]: did not reduce
inhibition of H4-Lys 8 acetylation by Hat1 [7, 17]: 30%
increase in H4-Lys16 acetylation by Hat1 [7, 18]: 30%
Lys16 acetylation by Hat1, recombinant H4 as substrate [7, 19]: loss of Lys16 acetylation
H4-Lys 5 acetylation by pCAF ([8]; acid-extracted core histones): did not reduce
inhibition of H4-Lys 8 acetylation by PCAF ([8]; basal acid-extracted core histones): 33%
Substance: lunasin: 43 amino acid small subunit of a soybean 2S albumin; residues 22-64 of SEQ ID NO:2 of U.S. Pat. No. 6,544,956; used as synthetic peptide
Genes up-regulated (greater than twofold change) ([1]; RWPE-2, 2 μM lunasin for 24 hours, 14500 genes interrogated): only two genes were up-regulated
Genes down-regulated ([1]; tumorigenic epithelial cells, 2 μM lunasin): No genes were down-regulated
Number of genes up-regulated (greater than twofold change) ([2]; RWPE-1, 2 μM lunasin for 24 hours, 14500 genes interrogated): 121 genes
Fold-change BNIP3, NIP3 [2, 15]: 2.05
Fold-change BUB1B, BUBR1 [2, 15]: 2.23
Fold-change ERBB2IP, ERBIN [2, 15]: 2.23
Fold-change MAD2L1 [2, 15]: 2.12
Fold-change PORIMIN [2, 15]: 2.26
Fold-change PRKAR1A, PKA [2, 15]: 2.45
Fold-change PRKCL2, PRK2 [2, 15]: 2.33
Fold-change PSMC6 [2, 15]: 2.58
Fold-change RANBP2 [2, 15]: 2.36
Fold-change SMURF2 [2, 15]: 2.29
Fold-change SPTLC1 [2, 15]: 2.12
Fold-change THBS1, TSP1 [2, 15]: 2.05
Fold-change TOB1 [2, 15]: 2.32
Fold-change TTK [2, 15]: 2.08
Fold-change UBE1C [2, 15]: 2.15
Fold-change USP1 [2, 15]: 2.23
SP3 expression in microarray ([2]; at 24 hours): upregulated
Genes down-regulated ([2]; non-tumorigenic epithelial cells, 2 μM lunasin): No genes were down-regulated
p21/WAF1/Cip1 expression in microarray ([2]; within 24 hours): did not show upregulation
skin tumorigenesis [3]: inhibited skin tumorigenesis
THBS protein level (Western blot) ([4]; non-tumorigenic RWPE-1 cell line): upregulated
THBS protein level (Western blot) ([4]; tumorigenic RWPE-2 prostate cells): silenced
apoptosis [5]: induce apoptosis
UGT1A1 protein levels (Western blot) ([9]; 10 uM lunasin): upregulates
UGT1A1 expression (RT-PCR) ([9]; 10 μM lunasin): significant upregulation
UGT1A3 expression (RT-PCR) ([9]; 10 μM lunasin): significant upregulation
UGT1A6 expression (RT-PCR) ([9]; 10 μM lunasin): significant upregulation
UGT1A10 expression (RT-PCR) ([9]; 10 μM lunasin): significant upregulation
H4-Lys16 acetylation at THBS gene (ChIP PCR) [10]: significant increase
foci formation [11]: suppress foci formation
binding preference for histone H4 [12]: preferentially binds to deacetylated histone H4
reduction of foci formation [13]: 70%
increase in p21/WAF1/Cip1 protein levels [14]: five-fold increase
